Assay results from US20250073346A1, “PHARMACEUTICAL COMBINATIONS” (Oxford Bio Therapeutics Ltd, priority 2021, published 2025).
Values belong to the molecule of their own block, whether it stands above or below them.

Experiments:
N87 cells = experiment: Platin after 72 hr LY75_A1 pre-treatment, cell viability (cell-titer glo); type: cell-based; settings: for reduction of IC50 in cells pre-treated with LY75_A1: pre-treated with LY75_A1 for 72 hours
Protocol: (§1) Cells were diluted in excess media and spun down. […] The plate was Incubated for 24 hr at 37° C. to allow cells to adhere and become acclimatized prior to addition of drug. The plates were incubated for 72 hr at 37° C. After 72 hr, the media was removed and replaced with either cisplatin or oxaliplatin at various concentrations (see figures) in 100 ul media before incubation for a further 48 hr.
(§2) After the incubation period, the plate was removed from the incubator and left at room temperature for 30 minutes. Media was removed from the plate which was washed twice with 200 ul PBS. The plate was then treated with cell-titer glo (CTG) following the manufacturer's protocol (Promega, Catalog No. G9681). Briefly, 200 ul CTG solution/well was added before incubating at RT on a plate rotator at low speed for 2 min before incubation in the dark for a further 10 min.
(§3) The plates were removed and the viability under the various conditions calculated.

HT-29 cells = experiment: as above; type: cell-based
Protocol: as §1, §2, §3

[1] = test system: NCI-N87 gastric cancer xenograft; experiment: Subcutaneous NCI-N87 gastric cancer xenograft model; type: in vivo, mouse
Protocol: The animals were fed ad libitum water (reverse osmosis, 1 ppm CI) and NIH 31 Modified and Irradiated Lab Diet® consisting standard rodent chow. The mice were housed on Crushed corncob bedding, autoclaved; changed weekly on a 12-hour light cycle at 20-22° C. (68-72° F.) and 40-60% humidity.
The NCI-N87 tumor cells were maintained in vitro with RMPI 1640 medium supplemented with 10% fetal bovine serum at 37° C. in an atmosphere of 5% CO2 in air. The cells in exponential growth phase were harvested and quantitated by cell counter before tumor inoculation.
Each mouse was inoculated subcutaneously in the right upper flank region with NCI-N87 tumor cells (1×10^7) in PBS mixed with matrigel (1:1) for tumor development. After tumor inoculation, the animals were checked daily for morbidity and mortality. During routine monitoring, the animals were checked for any effects of tumor growth and treatments on behavior such as mobility, food and water consumption, body weight gain/loss (Body weights would be measured two times per week after randomization), eye/hair matting and any other abnormalities. Mortality and observed clinical signs were recorded for individual animals in detail.
Tumor volumes were measured two times per week after randomization in two dimensions using a caliper, and the volume was expressed in mm3 using the formula: V=(L×W×W)/2, where V is tumor volume, L is tumor length (the longest tumor dimension) and W is tumor width (the longest tumor dimension perpendicular to L). Dosing as well as tumor and body weight measurements were conducted in a Laminar Flow Cabinet.
The randomization started when the mean tumor size reached approximately 183 mm3. […]
Each animal was euthanized for tumor progression (TP) when its tumor reached the […] endpoint. The time to endpoint (TTE) for each mouse was calculated with the following equation: TTE=log (endpoint volume)−b/m. […] Any animal determined to have died from treatment-related (TR) causes was to be assigned a TTE value equal to the day of death. […]
Treatment outcome was evaluated from tumor growth delay (TGD), which was defined as the increase in the median TTE for a treatment group compared to the control group: TGD=T−C expressed in days or as a percentage of the median TTE for the control group % TGD=T−C/C×100 where, T=median TTE for a treatment group, C=median TTE for the control group.
Animals were weighed daily on Days 1-5, and then twice weekly until the end of the study. Group mean BW nadirs were determined before more than 50% of the animals in a group exited the study. The mice were observed frequently for health and overt signs of any adverse TR side effects, and clinical observations were recorded, if observed. […]

HPAFII cells = experiment: Platin after 72 hr LY75_A1 pre-treatment, cell viability (cell-titer glo); type: cell-based; settings: for viability of cells: HPAFII, ~50 uM oxaliplatin
Protocol: as §1, §2, §3

LY75 = biological target: T1, LY75 (Homo sapiens, UniProt O60449); experiment: Immunohistochemistry with anti-LY75 antibody on FFPE Triple Negative breast cancer samples
T1 construct: tissue US Biomax Inc. or Origene; host or cells: FFPE triple negative breast cancer tissue sections/arrays
Protocol: (§4) Using the human monoclonal antibodies specific to LY75, immunohistochemistry was performed on FFPE HT-29 and A549 cell pellets, FFPE non-Hodgkin's lymphoma and pancreatic cancer arrays, and fresh frozen lymphoma/leukaemia tumours, ovarian cancer, pancreatic cancer, and breast cancer sections and a normal tissue array.
FFPE slides were deparaffinised in xylene (2×3 minutes) then rehydrated through 1:1 xylene: 100% ethanol (1×3 minutes), 100% ethanol (2×3 minutes), 95% ethanol (1×3 minutes), 70% ethanol (1×3 minutes), 50% ethanol (1×3 minutes), and tap water (1×3 minutes).
(§5) The LY75 antigen was retrieved using microwave heat, high power until boiling then low power for 10 minutes in 50 mL 1×citrate buffer in a Coplin jar. Slides were then left to cool to room temperature for a further 15 min, then washed in tap water, 3 minutes. Circles were drawn around each tissue section/TMA with a hydrophobic barrier pen and slides were then washed 3 times in PBS, 3 minutes each wash.
The primary anti-LY75 antibody was diluted in serum free protein block (SFPB) to obtain a solution with a concentration 20-fold greater than the final desired concentration (20 μg/mL for 1 μg/mL final). The secondary antibody, goat anti-human immunoglobulin G (IgG) antigen-binding fragment (Fab), was prepared similarly in SFPB to create a solution of equal concentration. […]

[2] = biological target: T2, LY75 (DEC-205), lymphocyte antigen 75 (human, UniProt O60449 28-1722); experiment: immunohistochemistry on FFPE human tumour tissue sections
T2 construct: Endogenous LY75 in human tumour tissue sections and on human tumour cell lines
Protocol: as §4, §5
Meanwhile, endogenous tissue peroxidase activity was blocked by incubating tissues with peroxidase suppressor for 5-10 minutes at RT in a humidified chamber. Slides were then washed in PBS 3×3 minutes each wash. Tissues were incubated in SFPB for 30 minutes at room temperature in a humidified chamber. Final staining complexes were applied to each tissue section and/or microarray, and the slides were incubated for 30 min at room temperature in a humidified chamber. Slides were then washed once in PBS and once in PBST (PBS+0.125% Tween-20), 3 minutes each wash. […]

[3] = N87 cells pretreated with 1 nM LY75_A1 for 72 hours
[4] = N87 cells pretreated with 10 nM LY75_A1 for 72 hours
[5] = HT29 cells pretreated with 0.5 nM LY75_A1 for 72 hours
[6] = HT29 cells pretreated with 2 nM LY75_A1 for 72 hours
[7] = single agent, single i.v. dose day 1 (OBT076 1 mg/kg; Oxaliplatin 5 mg/kg)

T1 sequence (O60449 28-1722): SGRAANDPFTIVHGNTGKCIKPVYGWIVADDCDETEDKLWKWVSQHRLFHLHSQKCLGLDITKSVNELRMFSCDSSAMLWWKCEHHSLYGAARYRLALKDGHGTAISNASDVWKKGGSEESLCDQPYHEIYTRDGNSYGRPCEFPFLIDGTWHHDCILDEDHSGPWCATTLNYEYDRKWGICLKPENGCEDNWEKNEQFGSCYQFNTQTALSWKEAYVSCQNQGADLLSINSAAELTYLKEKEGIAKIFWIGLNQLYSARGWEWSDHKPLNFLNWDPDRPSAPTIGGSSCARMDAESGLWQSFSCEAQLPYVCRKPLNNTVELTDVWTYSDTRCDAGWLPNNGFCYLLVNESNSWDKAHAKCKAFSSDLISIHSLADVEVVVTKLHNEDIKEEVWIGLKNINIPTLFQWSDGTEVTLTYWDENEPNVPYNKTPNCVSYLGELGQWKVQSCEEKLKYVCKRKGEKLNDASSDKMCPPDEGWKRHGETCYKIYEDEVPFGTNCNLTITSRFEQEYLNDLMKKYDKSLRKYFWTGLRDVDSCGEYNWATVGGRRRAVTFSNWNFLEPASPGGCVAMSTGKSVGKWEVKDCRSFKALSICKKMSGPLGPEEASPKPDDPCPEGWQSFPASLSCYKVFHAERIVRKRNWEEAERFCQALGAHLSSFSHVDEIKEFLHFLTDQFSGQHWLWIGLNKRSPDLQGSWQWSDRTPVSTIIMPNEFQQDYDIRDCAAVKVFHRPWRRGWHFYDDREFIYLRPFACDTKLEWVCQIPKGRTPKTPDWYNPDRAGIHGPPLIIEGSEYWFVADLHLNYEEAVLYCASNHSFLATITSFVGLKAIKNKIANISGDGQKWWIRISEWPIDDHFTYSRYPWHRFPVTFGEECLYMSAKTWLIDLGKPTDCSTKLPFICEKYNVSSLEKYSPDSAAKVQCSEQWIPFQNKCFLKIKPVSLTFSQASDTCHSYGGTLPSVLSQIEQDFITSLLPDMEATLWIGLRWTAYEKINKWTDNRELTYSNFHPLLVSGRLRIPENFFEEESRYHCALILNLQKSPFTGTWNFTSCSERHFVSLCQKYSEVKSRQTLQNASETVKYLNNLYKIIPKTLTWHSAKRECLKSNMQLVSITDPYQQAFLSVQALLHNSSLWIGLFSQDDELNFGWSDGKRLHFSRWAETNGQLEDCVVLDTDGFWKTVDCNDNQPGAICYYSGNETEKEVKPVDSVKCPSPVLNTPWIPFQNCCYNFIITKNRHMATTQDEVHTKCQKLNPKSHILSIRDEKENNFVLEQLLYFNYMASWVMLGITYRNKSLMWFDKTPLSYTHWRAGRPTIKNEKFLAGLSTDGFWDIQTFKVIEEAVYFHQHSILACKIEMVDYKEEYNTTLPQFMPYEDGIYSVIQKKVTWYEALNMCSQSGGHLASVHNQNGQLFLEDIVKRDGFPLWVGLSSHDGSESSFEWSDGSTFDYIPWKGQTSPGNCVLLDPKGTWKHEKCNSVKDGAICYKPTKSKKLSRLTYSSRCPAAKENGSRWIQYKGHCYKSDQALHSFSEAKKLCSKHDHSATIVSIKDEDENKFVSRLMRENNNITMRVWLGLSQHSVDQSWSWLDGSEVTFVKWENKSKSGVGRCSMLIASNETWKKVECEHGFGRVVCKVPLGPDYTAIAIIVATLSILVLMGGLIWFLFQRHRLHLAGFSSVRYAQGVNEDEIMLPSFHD
T2 sequence (O60449 28-1722 limits assumed): as the sequence (O60449 28-1722) above

Molecule: N.N.[Cl][Pt][Cl] [Cisplatin, cis-diamminedichloroplatinum(II)]
viability of cells (N87 cells; N87, ~3 uM cisplatin, not pre-treated, FIG. 5E): no cell death
viability of cells (N87 cells; N87, ~3 uM cisplatin, pre-treated with 1 or 10 nM LY75_A1, FIG. 5E): significantly lower than those which are not pre-treated
IC50 (N87 cells; [3]): 3.5 µM
IC50 (N87 cells; [4]): 0.9 µM
IC50 (N87 cells; N87 cells, cisplatin alone, 48 hr): 10 µM
reduction of IC50 in cells pre-treated with LY75_A1 (N87 cells; N87 cells): 10 fold
IC50 (HT-29 cells; [5]): 44.6 µM
IC50 (HT-29 cells; [6]): 18.7 µM
IC50 (HT-29 cells; HT29 cells, cisplatin alone, 48 hr): 44.7 µM
viability of cells (HT-29 cells; HT-29, ~10 uM cisplatin, not pre-treated, FIG. 5B): no cell death
viability of cells (HT-29 cells; HT-29, ~10 uM cisplatin, pre-treated with 2 nM LY75_A1, FIG. 5B): significantly lower than those which are not pre-treated

Molecule: O=C1[O][Pt]2([NH][C@@H]3CCCC[C@H]3[NH]2)[O]C1=O [Oxaliplatin]
mice that had died ([1]; by Day 81, single agent alone): ~71%
TGI on day 60 [1, 7]: 0.49%
Tumor Size (mm^3) on day 60 [1, 7]: 1969.92 +/− 258.93 mm^3
% Survival ([1]; to Day 81, single agent, single i.v. dose day 1 (OBT076 1 mg/kg; Oxaliplatin 5 mg/kg)): 28.57%
viability of cells (N87 cells; N87, ~10 uM oxaliplatin, not pre-treated, FIG. 5D): no cell death
viability of cells (N87 cells; N87, ~10 uM oxaliplatin, pre-treated with 1 or 10 nM LY75_A1, FIG. 5D): significantly lower than those which are not pre-treated
IC50 (N87 cells; [3]): 14.1 µM
IC50 (N87 cells; [4]): 1 µM
IC50 (N87 cells; N87 cells, oxaliplatin alone, 48 hr): 44.5 µM
reduction of IC50 in cells pre-treated with LY75_A1 (N87 cells; N87 cells): 44 fold
IC50 (HT-29 cells; [5]): 55.1 µM
IC50 (HT-29 cells; [6]): 32.7 µM
IC50 (HT-29 cells; HT29 cells, oxaliplatin alone, 48 hr): 66.8 µM
viability of cells (HT-29 cells; HT-29, ~10 uM oxaliplatin, not pre-treated, FIG. 5A): no cell death
viability of cells (HT-29 cells; HT-29, ~10 uM oxaliplatin, pre-treated with 2 nM LY75_A1, FIG. 5A): significantly lower than those which are not pre-treated
IC50 (HPAFII cells; HPAFII cells pretreated with 1 nM LY75_A1 for 72 hours): 85.4 µM
IC50 (HPAFII cells; HPAFII cells pretreated with 3 nM LY75_A1 for 72 hours): 62.1 µM
IC50 (HPAFII cells; HPAFII cells pretreated with 10 nM LY75_A1 for 72 hours): 58.8 µM
IC50 (HPAFII cells; HPAFII cells, oxaliplatin alone, 48 hr): ~256 µM
reduction of IC50 in cells pre-treated with LY75_A1 (HPAFII cells; HPAFII cells, pre-treated with LY75_A1 for 72 hours): approximately 4 fold
viability of cells (HPAFII cells; not pre-treated, FIG. 5C): no cell death
viability of cells (HPAFII cells; pre-treated with all concentrations (1, 3, 10 nM) of LY75_A1, FIG. 5C): significantly lower than those which are not pre-treated

sections exhibited robust (+++) staining (LY75): 55%
sections showed positive staining (LY75): 77%
binding result [2]: binds
B1: LY75_A1 monoclonal antibody (antibody, human IgG1, kappa, V domains shown)
VH: EVQLVESGGGLVKPGGSLRLSCAASGFTYSNAWMSWVRQAPGKGLEWVGRIKSKTDGGTTDYAAPVQGRFTISRDDSKNTLYLQMNSLKTEDTAVYYCTIFGVVSFDYWGQGTLVTVSS
VL: DVQMTQSPSSLSASVGDRVTITCRASQSISDYLSWYQQRPGKAPNLLIYAASNLKTGVPSRFSGSGSGTDFTLTISTLQPEDFATYYCQQSYRSPWTFGQGTKVEIKR
notes: Human antibody, detected with goat anti-human IgG Fab in the immunohistochemistry; also called anti-LY75_A1
